Reference: patent US10457637B2, “Benzenesulfonamide derivatives as inverse agonists of retinoid-related orphan receptor gamma (RORγ(T))” (GALDERMA RESEARCH & DEVELOPMENT, priority 2014, dated 2019)

Molecular target: ROR gamma ligand-binding domain (hRORg) (Homo sapiens (Human), UniProt P51449)
Assay: GAL4-RORγ transactivation (luciferase reporter, HG5LN HeLa line)
Type: cell-based
Details: 18 hours incubation
Text: GAL4-RORγ Transactivation
The RORγ transactivation model was developed from the line HG5LN, which is a HeLa line that stably expresses a luciferase reporter gene controlled by a pentamer of the GAL4 recognition domain of yeast and of a β-globin promoter. The HG5LN line was stably transfected by the DNA-binding domain (DBD) of GAL4 fused to the ROR gamma ligand-binding domain (LBD). Molecules that inhibit the ROR gamma constitutive activity reduce the luciferase expression, thus leading to a reduction in the emitted luminescence.
The cells are seeded in 384-well plates (5000 cells in 45 μL/well of culture medium containing 10% fetal calf serum) and incubated for 4 hours at 37° C., 5% CO2. 5 μL of the test molecules (compounds described in the tables described above) are then added to each well and the plates are incubated for 18 hours at a temperature of 37° C. under 5% of CO2. 20 μL of luciferase substrate (Promega) are added to each well and the luminescence emitted is read by a microplate reader.
The luminescence units (“RLU”) are normalized by positive controls (“POS” containing a saturated concentration of benzenesulfonamide, N-(2,2,2-trifluoroethyl)-N-[4-[2,2,2-trifluoro-1-hydroxy-1-(trifluoromethyl)ethyl]phenyl]) and negative controls (“NEG” containing DMSO): % inhibition=((RLU−NEG)*100)/(POS−NEG). The IC50 values are calculated from a 4-parameter logistic model using the XLFit software (IDBS).

Chain of ROR gamma ligand-binding domain (hRORg) (P51449 269-508): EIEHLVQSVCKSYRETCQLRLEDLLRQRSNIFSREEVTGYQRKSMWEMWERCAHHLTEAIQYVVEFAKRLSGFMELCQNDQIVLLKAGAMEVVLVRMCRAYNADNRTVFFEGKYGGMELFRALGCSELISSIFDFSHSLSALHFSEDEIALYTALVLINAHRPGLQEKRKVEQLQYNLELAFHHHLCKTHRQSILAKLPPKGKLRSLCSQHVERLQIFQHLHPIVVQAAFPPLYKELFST

IC50 [nM] | Compound
> 1000 | CCc1ccc(N(CC(C)C)S(=O)(=O)c2ccc(NCC3(CC)COC3)c(S(C)(=N)=O)c2)cc1 (stereo not drawn) [compound 126, 4-(((3-ethyloxetan-3-yl)methyl)amino)-N-(4-ethylphenyl)-N-isobutyl-3-(S-methylsulfonimidoyl)benzenesulfonamide]
> 1000 | CCc1ccc(N(CC(C)C)S(=O)(=O)c2ccc(NC[C@H]3CNC(=O)O3)c(S(C)(=N)=O)c2)cc1 (stereo partly drawn) [compound 106, N-(4-ethylphenyl)-N-isobutyl-3-(S-methylsulfonimidoyl)-4-((((S)-2-oxooxazolidin-5-yl)methyl)amino)benzenesulfonamide]
100 to 1000 | CCc1ccc(N(CC(C)C)S(=O)(=O)c2ccc(NCc3ccnc(OC)c3)c(S(C)(=N)=O)c2)cc1 (stereo not drawn) [compound 127, N-(4-ethylphenyl)-N-isobutyl-4-(((2-methoxypyridin-4-yl)methyl)amino)-3-(S-methylsulfonimidoyl)benzenesulfonamide]
100 to 1000 | CCc1ccc(N(CC(C)C)S(=O)(=O)c2ccc(N3CC4(C3)CS(=O)(=O)C4)c(S(C)(=N)=O)c2)cc1 (stereo not drawn) [compound 113, 4-(2,2-dioxido-2-thia-6-azaspiro[3.3]heptan-6-yl)-N-(4-ethylphenyl)-N-isobutyl-3-(S-methylsulfonimidoyl)benzenesulfonamide]
> 1000 | CCc1ccc(N(CC(C)C)S(=O)(=O)c2ccc(N3CC4(CN(C(C)=O)C4)C3)c(S(C)(=N)=O)c2)cc1 (stereo not drawn) [compound 122, 4-(6-acetyl-2,6-diazaspiro[3.3]heptan-2-yl)-N-(4-ethylphenyl)-N-isobutyl-3-(S-methylsulfonimidoyl)benzenesulfonamide]
100 to 1000 | CCc1ccc(N(CC(C)C)S(=O)(=O)c2ccc(N3CCC4(CC3)COC4)c(S(C)(=N)=O)c2)cc1 (stereo not drawn) [compound 114, N-(4-ethylphenyl)-N-isobutyl-3-(S-methylsulfonimidoyl)-4-(2-oxa-7-azaspiro[3.5]nonan-7-yl)benzenesulfonamide]
> 1000 | CCc1ccc(N(CC(C)C)S(=O)(=O)c2ccc(NCC3(N4CCCC4)COC3)c(S(C)(=N)=O)c2)cc1 (stereo not drawn) [compound 132, N-(4-ethylphenyl)-N-isobutyl-3-(S-methylsulfonimidoyl)-4-(((3-(pyrrolidin-1-yl)oxetan-3-yl)methyl)amino)benzenesulfonamide]
> 1000 | CCc1ccc(N(CC(C)C)S(=O)(=O)c2ccc(N3CC4(CN(C(=O)OC(C)(C)C)C4)C3)c(S(C)(=N)=O)c2)cc1 (stereo not drawn) [compound 110, tert-butyl 6-(4-(N-(4-ethylphenyl)-N-isobutylsulfamoyl)-2-(S-methylsulfonimidoyl)phenyl)-2,6-diazaspiro[3.3]heptane-2-carboxylate]
100 to 1000 | CCc1ccc(N(CC(C)C)S(=O)(=O)c2ccc(N3CCCOCC3)c(S(C)(=N)=O)c2)cc1 (stereo not drawn) [compound 137, N-(4-ethylphenyl)-N-isobutyl-3-(S-methylsulfonimidoyl)-4-(1,4-oxazepan-4-yl)benzenesulfonamide]
100 to 1000 | CCc1ccc(N(CC(C)C)S(=O)(=O)c2ccc(N3CC4CC3CO4)c(S(C)(=N)=O)c2)cc1 [compound 117, 4-((1R,4R)-2-oxa-5-azabicyclo[2.2.1]heptan-5-yl)-N-(4-ethylphenyl)-N-isobutyl-3-(S-methylsulfonimidoyl)benzenesulfonamide]
> 1000 | CCc1ccc(N(CC(C)C)S(=O)(=O)c2ccc(NCc3ccnc(C)c3)c(S(C)(=N)=O)c2)cc1 (stereo not drawn) [compound 90, N-(4-ethylphenyl)-N-isobutyl-4-(((2-methylpyridin-4-yl)methyl)amino)-3-(S-methylsulfonimidoyl)benzenesulfonamide]

More lines, now with the values behind:

Compound | IC50 [nM]
CCc1ccc(N(CC(C)C)S(=O)(=O)c2ccc(OCC3CCN(C(=O)OC(C)(C)C)CC3)c(S(C)(=N)=O)c2)cc1 (stereo not drawn) [compound 36, tert-butyl 4-((4-(N-(4-ethylphenyl)-N-isobutylsulfamoyl)-2-(S-methylsulfonimidoyl)phenoxy)methyl)piperidine-1-carboxylate] | > 1000
CCc1ccc(N(CC(C)C)S(=O)(=O)c2ccc([S+]([O-])CC3CCOCC3)c(C(=O)OC)c2)cc1 (stereo not drawn) [compound 16, methyl 5-[(4-ethylphenyl)isobutylsulfamoyl]-2-(tetrahydropyran-4-ylmethanesulfinyl)benzoate] | > 1000
CCc1ccc(N(CC(C)C)S(=O)(=O)c2ccc(OCc3ccnc(OC)c3)c(S(C)(=N)=O)c2)cc1 (stereo not drawn) [compound 77, N-(4-ethylphenyl)-N-isobutyl-4-((2-methoxypyridin-4-yl)methoxy)-3-(S-methylsulfonimidoyl)benzenesulfonamide] | > 1000
CCc1ccc(N(CC(C)C)S(=O)(=O)c2ccc3c(c2)[S+]([O-])CN3CC2CCOCC2)cc1 (stereo not drawn) [compound 75, 1-oxo-3-(tetrahydropyran-4-ylmethyl)-2,3-dihydro-1H-1λ^4-benzothiazole-6-sulfonic acid (4-ethylphenyl)isobutylamide] | > 1000
CCc1ccc(N(CC(C)C)S(=O)(=O)c2ccc(NC3CCS(=O)(=O)C3)c(S(C)(=N)=O)c2)cc1 (stereo not drawn) [compound 86, 4-((1,1-dioxidotetrahydrothiophen-3-yl)amino)-N-(4-ethylphenyl)-N-isobuytl-3-(S-methylsulfonimidoyl)benzenesulfonamide] | 100 to 1000
CCc1ccc(N(CC(C)C)S(=O)(=O)c2ccc3c(c2)[S+]([O-])C(C)(C)N3CC2CCOCC2)cc1 (stereo not drawn) [compound 74, 2,2-dimethyl-1-oxo-3-(tetrahydropyran-4-ylmethyl)-2,3-dihydro-1H-1λ^4-benzothiazole-6-sulfonic acid (4-ethylphenyl)isobutylamide] | 100 to 1000
CCc1ccc(N(CC(C)C)S(=O)(=O)c2ccc(OCc3ccc(F)cc3F)c(S(C)(=N)=O)c2)cc1 (stereo not drawn) [compound 45, 4-((2,4-difluorobenzyl)oxy)-N-(4-ethylphenyl)-N-isobutyl-3-(S-methylsulfonimidoyl)benzenesulfonamide] | > 1000
CCc1ccc(N(CC(C)C)S(=O)(=O)c2ccc(OCC3CCOCC3)c([S+]([O-])CC)c2)cc1 (stereo not drawn) [compound 22, ethanesulfinyl-N-(4-ethylphenyl)-N-isobutyl-4-(tetrahydropyran-4-ylmethoxy)benzenesulfonamide] | 100 to 1000
CCc1ccc(N(CC(C)C)S(=O)(=O)c2ccc(NCC3CCC(=O)NC3)c(S(C)(=N)=O)c2)cc1 (stereo not drawn) [compound 58, N-(4-ethylphenyl)-N-isobutyl-3-(S-methylsulfonimidoyl)-4-(((6-oxopiperidin-3-yl)methyl)amino)benzenesulfonamide] | > 1000
CCc1ccc(N(CC(C)C)S(=O)(=O)c2ccc(SCC3CCOCC3)c(C(=O)OC)c2)cc1 [compound 17, methyl 5-[(4-ethylphenyl)isobutylsulfamoyl]-2-(tetrahydropyran-4-ylmethylsulfanyl)benzoate] | > 1000
CCc1ccc(N(CC(C)C)S(=O)(=O)c2ccc3c(c2)NC(=O)CS3)cc1 [compound 10, 3-oxo-3,4-dihydro-2H-benzo[1,4]thiazine-6-sulfonic acid (4-ethylphenyl)isobutylamide] | > 1000
CCc1ccc(N(CC(C)C)S(=O)(=O)c2ccc(NCC3CCOCC3)c(S(N)(=O)=O)c2)cc1 [compound 67, 4-[(tetrahydropyran-4-ylmethyl)amino]benzene-1,3-disulfonic acid 3-amide 1-[(4-ethylphenyl)isobutylamide]] | 100 to 1000
CCc1ccc(N(CC(C)C)S(=O)(=O)c2ccc3c(c2)[S+]([O-])CCN3CC2CCOCC2)cc1 (stereo not drawn) [compound 71, 1-oxo-4-(tetrahydropyran-4-ylmethyl)-1,2,3,4-tetrahydro-1λ^4-benzo[1,4]thiazine-7-sulfonic acid (4-ethylphenyl)isobutylamide] | > 1000
CCc1ccc(N(CC(C)C)S(=O)(=O)c2ccc(OCC3CCN(S(C)(=O)=O)CC3)c(S(C)(=N)=O)c2)cc1 (stereo not drawn) [compound 51] | > 1000
CCc1ccc(N(CC(C)C)S(=O)(=O)c2ccc3c(c2)N(CC2CCOCC2)CCS3)cc1 [compound 6, 4-(tetrahydropyran-4-ylmethyl)-3,4-dihydro-2H-benzo[1,4]thiazine-6-sulfonic acid (4-ethylphenyl)isobutylamide] | > 1000
CCc1ccc(N(CC(C)C)S(=O)(=O)c2ccc(OCc3ccncc3)c(S(C)(=N)=O)c2)cc1 (stereo not drawn) [compound 39, N-(4-ethylphenyl)-N-isobutyl-3-(S-methylsulfonimidoyl)-4-(pyridin-4-ylmethoxy)benzenesulfonamide] | > 1000
CCc1ccc(N(CC(C)C)S(=O)(=O)c2ccc3c(c2)sc(=O)n3CC2CCOCC2)cc1 [compound 72] | 100 to 1000
CCc1ccc(N(CC(C)C)S(=O)(=O)c2ccc(OCc3cc(C)nc(C)c3)c(S(C)(=N)=O)c2)cc1 (stereo not drawn) [compound 43, 4-((2,6-dimethylpyridin-4-yl)methoxy)-N-(4-ethylphenyl)-N-isobutyl-3-(S-methylsulfonimidoyl)benzenesulfonamide] | > 1000
CCc1ccc(N(CC(C)C)S(=O)(=O)c2ccc(OCC3(F)COC3)c(S(C)(=N)=O)c2)cc1 (stereo not drawn) [compound 32, N-(4-eethylphenyl)-4-((3-fluorooxetan-3-yl)methoxy)-N-isobutyl-3-(S-methylsulfonimidoyl)benzenesulfonamide] | > 1000
